# Results from US8946201B2, “Methods for inhibiting TGF-β” (Saint Louis University, priority 2007, dated 2015).
# Tests used:
# TβR-I and TβR-II = test: Western blot of TβR-I and TβR-II protein levels, Mv1Lu cells; assay type: cell-based, mink; details: 50 μg/ml
# Experimental: Cells grown to near confluence on 12-well cluster dishes were treated with cholesterol or LDL in serum-free DMEM (vol.=0.5 ml/well) at 37° C. for 1 hr. The treated cells were further incubated with 50 or 100 pM TGF-β1 at 37° C. for 30 min (for determining Smad2 phosphorylation) or for 2 hr (for determining TβR-II). Treated cells were lysed and cell lysates were analyzed by 7.5% SDS-PAGE and Western blot analysis using anti-Smad2, anti-P-Smad2, anti-caveolin-1, anti-TβR-I (alk5) or anti-TβR-II antibodies as described previously (30). The antigens on the blots were visualized by using horseradish peroxidase-conjugated anti-rabbit IgG antibody and the ECL system as described (30).
# To determine if cholesterol suppresses TGF-β responsiveness by decreasing the ratio of TGF-β1 binding to TβR-II and TβR-I, we first determined the time course of the effect of cholesterol treatment on the ratio of ^125I-TGF-β1 binding to TβR-II and TβR-I in Mv1Lu cells. These cells were treated with 50 μg/ml cholesterol at 37° C. for several time periods. ^125I-TGF-β1 binding to TGF-β receptors was then determined by affinity labeling using the bifunctional cross-linking agent DSS (disuccinimidyl suberate) followed by 7.5% SDS-PAGE and autoradiography or quantified with a PhosphoImager. […] We then performed analysis of the effect of cholesterol treatment on TGF-β1 binding to TβR-I and TβR-II in several cell types. Mv1Lu, BAEC, and NRK cells were treated for 1 hr with increasing concentrations of cholesterol in the presence and absence of 0.2% β-cyclodextrin (β-CD, which forms water-soluble complexes with cholesterol) at 37° C. The binding of TGF-β1 to TβR-I and TβR-II in these cells was then determined by ^125I-TGF-β1 affinity labeling at 0° C.
# Mv1Lu cells = test: Cell viability under the experimental conditions, Mv1Lu cells; assay type: cell-based, mink; details: conditions of the thymidine incorporation or affinity labeling experiment
# Experimental: The growth of cholesterol-treated cells was determined by measurement of [methyl-^3H]thymidine incorporation into cellular DNA as described (30). Briefly, cells grown near confluence on 48-well clustered dishes were treated with several concentrations of cholesterol at 37° C. for 1 hr in serum-free DMEM. The final concentration of ethanol (the vehicle for cholesterol) in the medium was 0.2%. Treated cells were then incubated with 0.0625 pM or 0.125 pM of TGF-β1 in DMEM containing 0.1% fetal calf serum at 37° C. for 18 hr. The [methyl-^3H]thymidine incorporation into cellular DNA was then determined by incubation of cells with [methyl-^3H]thymidine at 37° C. for 2 hr in DMEM containing 0.1% fetal calf serum. The optimal concentrations of TGF-β1 to inhibit cell growth are in the range of 0.1 to 1 pM.
# To define the specificity of the cholesterol effect, we determined the effects of cholesterol analogs and derivatives on ^125I-TGF-β1 binding to TβR-I and TβR-II in Mv1Lu cells. These cells were treated with 50 μg/ml of cholesterol or related oxysterol derivatives (25-hydroxycholesterol, 7-dehydrocholesterol (7-DHC), oxidized 7-DHC (oxy-7-DHC), cholest-5-en-7-one, 7-ketocholesterol, 7β,8β-epoxycholestanol, and 7β-hydroxycholesterol) at 37° C. for 1 hr. ^125I-TGF-β1 binding to TGF-β receptors was then determined by affinity labeling.
# [1] = test system: Smad2 nuclear translocation; test: Smad2 nuclear translocation, indirect immunofluorescent staining, Mv1Lu cells; assay type: cell-based, mink; details: 50 μg/ml 1 hr, then 50 pM TGF-β1 30 min
# Experimental: Cells were treated with increasing concentrations of cholesterol, as indicated (A, B, C), 50 μg protein/ml LDL (D), 5 μg protein/ml VLDL (D) or 50 μg/ml cholesterol (E) at 37° C. for 1 hr and then further incubated with 50 pM TGF-β1 for 30 min. […] Smad2 nuclear translocation was analyzed by indirect immunofluorescent staining using P-Smad2 antibody and rhodamine-labeled 2nd antibody (E). Rhodamine fluorescence represents P-Smad2 staining (a,b,c) whereas the nuclei were stained by DAPI staining (d,e,f).
# For indirect immunofluorescent staining, cells grown on cover glass were fixed in cold 100% methanol and then incubated with antibody to P-Smad2 overnight. The antigen was visualized by incubation with Rhodamine-conjugated goat antibody to rabbit IgG followed by immunofluorescence microscopy.
# To test this possibility, we determined the effect of cholesterol treatment on Smad2 phosphorylation and nuclear translocation, both of which are key signaling events, leading to TGF-β responsiveness. […] To determine the effect of cholesterol on Smad2 nuclear translocation, Mv1Lu cells were treated with 50 μg/ml cholesterol at 37° C. for 1 hr and then further incubated with and without 50 pM TGF-β1 at 37° C. for 30 min. These cells were subjected to immunofluorescent staining using anti-P-Smad2 antibody and nuclear DAPI (4′,6-diamidine-2-phenylindole dihydrochloride) staining.
# PAI-1 expression = test: TGF-β1-induced PAI-1 expression, Northern blot, NRK cells; assay type: cell-based, rat; details: 50 μg/ml, TGF-β1 2 to 100 pM
# Experimental: (A, B, C, D, E, F) Cells were treated with 50 μg/ml cholesterol (A, B, C, D) and 50 μg/ml LDL (D) at 37° C. for 1 hr or with 1 μM fluvastatin or lovastatin (E) or several concentrations of fluvastatin (F) at 37° C. for 16 hr and then further incubated with increasing concentrations (as indicated) of TGF-β1 (A, B, C, E) or 50 pM TGF-β1 (D,F) for 2 hr. Northern blot analysis of PAI-1 and G3PDH was performed. A representative of a total of three analyses is shown (a). The relative intensities of the transcripts were quantified with a PhosphoImager. The ratio of the relative intensities of PAI-1 and G3PDH transcripts in cells treated without TGF-β1 and cholesterol, LDL or statins on the blot was taken as 1 fold or 100% of PAI-1 expression. The quantitative data from three independent analyses is shown (b). […] (G) Mv1Lu cells stably expressing a luciferase reporter gene driven by the PAI-1 promoter (MLECs-clone 32) were treated with increasing concentrations (as indicated) of cholesterol at 37 EC for 1 hr (a) or with 1 μM lovastatin at 37° C. for 16 hr (b) and then further incubated with 50 pM TGF-β for 7 hr. The luciferase activity in cells treated without cholesterol was taken as 100% (a). […] (H) Cells were incubated with 0.0625 and 0.125 pM TGF-β1 in the presence of increasing concentrations of cholesterol, as indicated. […] The experiments were carried out in triplicate.
smiles,measurement,setting,value
CC(C)CCC[C@@H](C)[C@H]1CC[C@H]2[C@@H]3CC=C4C[C@@H](O)CC[C@]4(C)[C@H]3CC[C@]12C [cholesterol],effect on the protein levels of TβR-I and TβR-II,TβR-I and TβR-II; data not shown,did not affect
same,effect on the total amount of TβR-II protein,TβR-I and TβR-II; cholesterol alone,did not affect
same,effect on cell viability,Mv1Lu cells,did not appear to affect
same,effect on Smad2 nuclear translocation,[1],suppressed
same,suppression of TGF-β1-stimulated PAI-1 expression,PAI-1 expression,60-65%
